This note sets out measurements from patent US20060123501A1, “Method for treating inflammatory disorders” (priority 2004, published 2006).

Where two headings read alike, the source gives them in different places.

The subject of series [1] is cIAP2−/− and control mice. As to conditions: LPS 0 μg/kg, D-galactosamine 0.6 g/kg i.p. An excerpt: In addition, we exposed cIAP2^−/− mice to a second mode of LPS-induced toxicity, where treatment with D-galactosamine (DGLBN) sensitized mice to endotoxic shock.
For series [2], the system named is spleen derived T cells. Nature of the series: Dexamethasone-induced death of T cells pre-incubated with IL-7. Format: cell-based, mouse. Particulars: dexamethasone 100 nM. As to the method: Peritoneal-derived macrophages from cIAP2^−/− (lower panels) and cIAP2^+/+ mice (upper panels) were either pre-treated with LPS for 4 h or not pre-treated prior to exposure to α-Fas antibody and then TUNEL stained to assess cell viability (A). Percentages of viable cells (n=5, average of triplicate wells per mouse, P values were <0.01) are shown within each TUNEL stained panel along with the standard deviation. cIAP2^−/−-derived (open shapes) and cIAP2^+/+-derived (solid shapes) T cells were pre-incubated with a range of IL-7 concentrations and then exposed to dexamethasone and T cell survival was monitored over a 12 h period (B) (n=3, average of triplicate wells per mouse, results are mean±s.d., P values at the 12 h point were <0.05). Peritoneal-derived cell numbers are shown for macrophages of cIAP2^−/− mice and littermate control cIAP2^+/+ mice injected i.p. with LPS(C). […]
Confluent primary cultures of peritoneal-derived macrophages were either pre-treated with LPS (10 μg/ml, 4 h) or not pre-treated prior to exposure to α-Fas antibody (20 μg/ml, clone Jo2) and then TUNEL stained (Roche) to assess cell viability. Primary cultures of spleen derived T cells were pre-incubated with a range of IL-7 concentrations (0, 5, and 10 ng/ml) and then exposed to dexamethasone (100 nM) and T cell survival was monitored over a 12 h period.

In the case of `N[C@H]1C(O)O[C@H](CO)[C@H](O)[C@@H]1O` (stereo partly drawn) [D-galactosamine], the Survival in series [1] (cIAP2+/+ mice) and in series [1] (cIAP2−/− mice) was 6/6 in each case.

B1: IL-7: cIAP2-inducing agent that imparts T cells with increased apoptotic resistance (protein, UniProt P13232 26-177, looked up)
Interleukin-7: DCDIEGKDGKQYESVLMVSIDQLLDSMKEIGSNCLNNEFNFFKRHICDANKEGMFLFRAARKLRQFLKMNSTGDFDLHLLKVSEGTTILLNCTGQVKGRKPAALGEAQPTKSLEENKSLKEQKKLNDLCFLKRLLQEIKTCWNKILMGTKEH
On to B1, for which the “Resistance to apoptosis with or without IL-7 pretreatment” value in series [2] (cIAP2−/− T cells) is listed as “displayed no difference in the resistance to apoptosis”. Moreover, the “Resistance against dexamethasone-induced death after IL-7 pre-exposure” value in series [2] (wild-type T cells, IL-7 5 or 10 ng/ml) is reported as “showed a dose dependent resistance against dexamethasone-induced death”.
